From patent publication US10130677B2, “Antimicrobial peptide and uses thereof” (priority 2013, dated 2018) come the findings set out here.

The test system of experiment [1] is S. aureus JAR060131. It counts as cell-based, Staphylococcus aureus. The conditions noted are these: for IC99.9: approx. 1 × 10^6 CFU/ml S. aureus JAR, within 2 hrs (Table 2). As for the experimental part:
Polypeptides of the invention preferably have an in vitro IC99.9 of at most 150 μM after 2 hours at 37° C. against at least one microbial species in the presence of 50% plasma. Said IC99.9 is preferably determined in accordance with a method for determining the antimicrobial activity as described herein in the Examples. Said method described in the Examples for determining antimicrobial activity of microbes not associated with biofilm involves the mixing of 50 microL of a solution of a polypeptide in PBS with addition of human plasma at a final concentration of 50% and 20 microL of bacterial suspension with 5×10^6 CFU per mL of PBS in a well. After incubation of this mixture for 2 hours at 37° C. under shaking conditions, a sample is used for assessment of the bacterial counts. The lowest peptide concentration at which there is 99.9% of bacteria killed, is called the inhibitory concentration (IC) 99.9. Bacterial counts can be determined by manual CFU counting. For determining antibacterial activity for instance 1×10^6 CFU/ml bacteria are used, for determining antifungal activity for instance 1×10^5 cells/ml are used.
(§1) Peptides were incubated with 1×10^6 CFU/ml of a mid-logarithmic culture of S. aureus JAR060131, methicillin resistant S. aureus (MRSA) LUH14616, Staphylococcus epidermidis RP62a, and Pseudomonas aeruginosa PAO1 in PBS without or with addition of pooled human plasma (Sanquin, Amsterdam, the Netherlands) at a final concentration of 50%. Antimicrobial activity is expressed as the 99.9% lethal concentration (LC99.9), i.e., the lowest peptide concentration which killed ≥99.9% of bacteria after 2 hours of incubation at 37° C. under shaking conditions.

Experiment [2] relates to A. niger PagsA-lux. Put plainly: Effect on fungal growth. It counts as cell-based, Aspergillus niger. The conditions noted are these: 25% plasma; light micrographs only, 16 hours (FIG. 2). On the procedure:
The effect of the peptides on fungal growth was assessed using Aspergillus niger. Peptides were incubated with 7.5×10^4 spores/ml of A. niger PagsA-lux in PBS without or with addition of pooled human plasma at a final concentration of 25%. As positive control, spores were treated with the antifungal caspofungin (Cancidas). Absorbance was measured over time and at 16 hours, fungal growth was visualized using light microscopy.

In experiment [3] the test system is S. aureus JAR060131 biofilm formation. The class given is cell-based, Staphylococcus aureus. On the procedure: After solubilization with ethanol, the optical density at 590 nm is determined as a measure of biofilm mass.
Peptides were incubated with 1×10^8 CFU/ml of S. aureus JAR060131 in biofilm-adjusted BM2 in 96-wells polypropylene plates as described in Antimicrob Agents Chemother 2012; 56: 2696-2704. After 24 hours incubation at 37° C., planktonic bacteria were removed by four washes with PBS and biofilms were stained with crystal violet. After solubilization with ethanol, the optical density at 590 nm was determined as a measure of biofilm mass.
To assess the antibiofilm activity of the peptides in the presence of plasma, 96-wells polypropylene plates were coated with plasma by overnight incubation with 20% plasma at 4° C. Wells were washed once with sterile water and inoculated with S. aureus and peptides as described above.

Experiment [4] concerns LPS (E. coli 054)-induced IL-12p40 production. The experiment is described as follows: LPS neutralization in whole human blood. It counts as cell-based. The conditions noted are these: LPS-induced IL-12p40; blood from two donors. An excerpt:
(§2) The term “anti-inflammatory activity” of a polypeptide as used herein refers to inhibiting, reducing or preventing an inflammatory response in a subject that has been infected by microbes, e.g. bacteria, viruses, fungi, and/or parasites. Anti-inflammatory activity of polypeptides of the invention is achieved by inhibiting, reducing or preventing the release of pro-inflammatory microbial compounds, such as lipoteichoic acid (LTA), peptidoglycan (PG) and/or lipopolysaccharides (LPS). Anti-inflammatory activity can be measured by methods known in the art. Examples of such method are a LPS neutralization assay and a LTA neutralization assay as described in the Examples of this application. In such method, a polypeptide of the invention is mixed with a fixed concentration of LPS or LTA, such as 500 ng/ml LPS or 2 mg/ml LTA, and incubated for 30 min. Thereafter, these mixtures were added to diluted fresh human whole blood and 20 hours thereafter the level of cytokines (e.g. 1L-8 for LTA and 1L-12p40 for LPS) in the blood sample are measured by ELISA.
(§3) Peptides were pre-incubated with 500 ng/ml LPS (E. coli 054) or 2 mg/ml LTA (S. aureus, endotoxin-free) or 1×10^9 CFU/ml of UV-killed S. aureus JAR060131 for 30 min at 37° C. Diluted whole human blood was stimulated with the peptide-LPS/LTA/S. aureus mixtures for 20 hours at 37° C. IL-12p40 and IL-8 levels in supernatants were determined using ELISA.

The subject of experiment [5] is LTA (S. aureus)-induced IL-8 production. Put plainly: LTA neutralization in whole human blood. It counts as cell-based.
Description: as §2, §3

For experiment [6], the system named is Staphylococcus epidermidis RP62a. The class given is cell-based. Particulars: 50% plasma. On the procedure:
as §1

Experiment [7] deals with UV-killed S. aureus JAR060131-induced IL-8 production. The experiment is described as follows: S. aureus neutralization in whole human blood. The class given is cell-based. On the procedure:
as §3

Where two headings read alike, the source gives them in different places.

Turning to “Ac-LKRLYKALAKLIKRLYRYLKKPVR-NH2 [Peptide P252, J LKRLYKALAKLIKRLYRYLKKPVR B]”, the LC99.9 in experiment [1] (50% plasma, experiment 2013.01.15 (Table 6)) came out at 51.2 µM; in experiment [1] (50% plasma, experiment 2013.01.18 (Table 6)), 12.8 µM; in experiment [1] (PBS, experiment 2013.01.15 (Table 6)) it was 1.6 µM; in experiment [1] (PBS, experiment 2013.01.18 (Table 6)), 0.8 µM.
One may read the IC50 as the concentration needed to halve the response being measured. One may read the IC90 as the concentration needed for an effect of 90%. Consider “Ac-LKRLYKRLAKLIKRLYRYLKKPVR-NH2 [Peptide P145, J LKRLYKRLAKLIKRLYRYLKKPVR B]”, for which, in experiment [2], the “concentration inhibiting A. niger growth” value is 102.4 µM. For the same substance, the IC50 in experiment [3] (JAR060131 biofilm formation, 24 h) was 6400 nM; in experiment [5] (LTA-induced IL-8, blood from one donor), 0.195 µM; in experiment [7] (UV-killed S. aureus JAR060131-induced IL-8, blood from one donor) it was 1.56 µM. The “concentration needed to inhibit biofilm formation for 50%, relative to OP-145 and P159” value in experiment [3] (plasma-coated wells (FIG. 3B)) is listed as “two-fold higher concentration”. For the same substance, the 90% effect concentration (IC90) in experiment [4] worked out at 0.75 nM. Also, in experiment [5], the “fold increased LTA-neutralizing ability versus OP-145” value is recorded as 4 fold. The IC99.9 in experiment [1] (50% plasma) turned out to be 25.6 µM; in experiment [1] (PBS), 1.6 µM. Further, the “higher bactericidal activity as compared to OP-145” value in experiment [6] is reported as 43 fold. Further, the “fold higher concentration than OP-145 needed to inhibit S. aureus-induced IL-8 production for >50%” value in experiment [7] is on record as 8 fold.
As for “J LKKLWKRLARLLKRFIRQLRRPVR B (Ac-LKKLWKRLARLLKRFIRQLRRPVR-NH2) [Peptide P147]”, the IC99.9 in experiment [1] (50% plasma) is 51.2 µM; in experiment [1] (PBS) it was 1.6 µM.
Turning to “J LKKLWKRLARLWKRIIRQLKKPVR B (Ac-LKKLWKRLARLWKRIIRQLKKPVR-NH2) [Peptide P160]”, the IC99.9 was 25.6 µM in experiment [1] (50% plasma) and 1.6 µM in experiment [1] (PBS).
In the case of “J LKKLWKRVFRIWKRIFRYLKRPVR B (Ac-LKKLWKRVFRIWKRIFRYLKRPVR-NH2) [Peptide P139]”, the IC99.9 amounted to 51.2 µM in experiment [1] (50% plasma) and 0.8 µM in experiment [1] (PBS).
In the case of “J LKKLYKRLFKILKRILRYLRKPVR B (Ac-LKKLYKRLFKILKRILRYLRKPVR-NH2) [Peptide P146]”, the IC99.9 in experiment [1] (50% plasma) was 51.2 µM; in experiment [1] (PBS) it was 1.6 µM.
The like results for “J LKKLYKRLFKLWKRLYRYLKKPVR B (Ac-LKKLYKRLFKLWKRLYRYLKKPVR-NH2) [Peptide P151]” were, in that order, 25.6 µM and 1.6 µM.
Regarding “J LKKLYKRVAKIWKRWIRYLKKPVR B (Ac-LKKLYKRVAKIWKRWIRYLKKPVR-NH2) [Peptide P144]”, in experiment [1] (50% plasma), the “fold increase of activity in the presence of plasma as compared to OP-145” value (“fold increase of activity” below) came out at 8 fold and the IC99.9 was 25.6 µM. The same substance had an IC99.9 in experiment [1] (PBS) of 1.6 µM.
Consider “J LKKVWKRVARLIKRWFRYLRRPVR B [Peptide P150]”, for which the IC99.9 in experiment [1] (50% plasma) was determined as 25.6 µM; in experiment [1] (PBS), 1.6 µM.
The like results for “J LKKVWKRVFRILKRFLRYLKRPVR B (Ac-LKKVWKRVFRILKRFLRYLKRPVR-NH2) [Peptide P157]” were, in that order, 51.2 µM and 0.8 µM.
For the substance “J LKKVYKRLARLLKRYIRYLRRPVR B (Ac-LKKVYKRLARLLKRYIRYLRRPVR-NH2) [Peptide P149]”, in experiment [1] (50% plasma), the “fold increase of activity” value was 2 fold and the IC99.9 is 102.4 µM. The substance further showed an IC99.9 in experiment [1] (PBS) of 1.6 µM.
The like results for “J LKKVYKRVARLIKRLFRYLKRPVR B [Peptide P155]” were, in that order, 2 fold, 102.4 µM and 1.6 µM.
Turning to “J LKRLWKRLFKILKRYYRYLRRPVR B (Ac-LKRLWKRLFKILKRYYRYLRRPVR-NH2) [Peptide P162]”, the IC99.9 is 25.6 µM in experiment [1] (50% plasma) and 1.6 µM in experiment [1] (PBS).
Turning to “J LRKLWKRLAKIIKRLYRYLRRPVR B (Ac-LRKLWKRLAKIIKRLYRYLRRPVR-NH2) [Peptide P154]”, the IC99.9 in experiment [1] (50% plasma) was 51.2 µM; in experiment [1] (PBS) it was 1.6 µM.
For “J LRKLWKRVVKIWKRYLRQLRRPVR B (Ac-LRKLWKRVVKIWKRYLRQLRRPVR-NH2) [Peptide P153]”, the IC99.9 in experiment [1] (50% plasma) is 25.6 µM; in experiment [1] (PBS), 1.6 µM.
For the substance “J LRRLWKRLVKILKRWFRYLRRPVR B (Ac-LRRLWKRLVKILKRWFRYLRRPVR-NH2) [Peptide P142]”, the IC99.9 in experiment [1] (50% plasma) was 51.2 µM; in experiment [1] (PBS) it was 0.8 µM.
The like results for “J LRRLWKRLVKLWKRFFRYLKKPVR B [Peptide P156]” were, in that order, 51.2 µM and 1.6 µM.
As for “J LRRLWKRLVRIIKRIYRQLKRPVR B (Ac-LRRLWKRLVRIIKRIYRQLKRPVR-NH2) [Peptide P140]”, the IC99.9 in experiment [1] (50% plasma) stood at 25.6 µM; in experiment [1] (PBS), 1.6 µM.
Turning to “J LRRLWKRVFKIIKRLFRQLKKPVR B (Ac-LRRLWKRVFKIIKRLFRQLKKPVR-NH2) [Peptide P163]”, the IC99.9 in experiment [1] (50% plasma) came to 25.6 µM; in experiment [1] (PBS), 0.8 µM.
In the same order, the values of “J LRRLYKRVFRLLKRWWRYLKRPVR B (Ac-LRRLYKRVFRLLKRWWRYLKRPVR-NH2) [Peptide P141]” are 25.6 µM and 0.8 µM.
For the substance “J LRRLYKRVVKLWKRLFRQLRRPVR B (Ac-LRRLYKRVVKLWKRLFRQLRRPVR-NH2) [Peptide P143]”, in experiment [1] (50% plasma), the “fold increase of activity” value is given as 4 fold and the IC99.9 worked out at 51.2 µM. In experiment [1] (PBS), this substance yielded an IC99.9 of 1.6 µM.
With “J LRRVWKRVARIIKRLYRYLKRPVR B (Ac-LRRVWKRVARIIKRLYRYLKRPVR-NH2) [Peptide P161]”, the results for the IC99.9 in experiment [1] (50% plasma) and in experiment [1] (PBS) were 25.6 µM and 1.6 µM, respectively.
“J LRRVYKRLARLIKRYLRQLKKPVR B (Ac-LRRVYKRLARLIKRYLRQLKKPVR-NH2) [Peptide P152]”: the values for the IC99.9 in experiment [1] (50% plasma) and in experiment [1] (PBS) were 25.6 µM and 1.6 µM, respectively.
For the substance “J LRRVYKRLFRLWKRIIRQLRRPVR B (Ac-LRRVYKRLFRLWKRIIRQLRRPVR-NH2) [Peptide P158]”, the IC99.9 came to 25.6 µM in experiment [1] (50% plasma) and 1.6 µM in experiment [1] (PBS).
